From US20050060764A1, “Mouse model for bone metabolism” (priority 2003, published 2005)
Strand notation (5' to 3'): a small letter for the sugar, then the base; units joined by * are phosphorothioate-linked, units joined directly phosphodiester-linked; [ ] holds rarer units or linkages, { } end groups; capitals alone tell only the bases. e = 2'-O-(2-methoxyethyl) (MOE); [5mC] = 5-methylcytosine; d = 2'-deoxy (DNA)

Tested on: rat RANKL mRNA
Assay: Antisense inhibition of rat RANKL mRNA levels in UMR-106 cells, quantitative real-time PCR (Table 3)
Assay type: cell-based
Set-up: concentration or dose not given beside the values
Conditions: averages from three experiments
Method: Cells were seeded onto 24-well plates (Falcon-353047) at a density of […] for use in antisense oligonucleotide transfection.
Cells are treated and data are obtained in triplicate. […] Cells were harvested 16-24 hours after oligonucleotide treatment.
PCR reagents were obtained from Invitrogen Corporation, (Carlsbad, Calif.).
Probes and primers to rat RANKL were designed to hybridize to a rat RANKL sequence, using published sequence information (GenBank accession number NM_057149.1, incorporated herein as SEQ ID NO:18). For rat RANKL the PCR primers were: • forward primer: […] (SEQ ID NO:19) • reverse primer: […] (SEQ ID NO: 20) and the • PCR probe was: FAM-[…]-TAMRA (SEQ ID NO: 21) where FAM is the fluorescent reporter dye and TAMRA is the quencher dye. For rat GAPDH the PCR primers were: • forward primer: […](SEQ ID NO:22) • reverse primer: […](SEQ ID NO:23) and the • PCR probe was: 5′ JOE-[…]-TAMRA 3′ (SEQ ID NO: 24) where JOE is the fluorescent reporter dye and TAMRA is the quencher dye.
In accordance with the present invention, a second series of antisense compounds was designed to target different regions of the rat RANKL RNA, using published sequences (GenBank accession number NM_057149.1, incorporated herein as SEQ ID NO: 18, and GenBank accession number AF425669.1, incorporated herein as SEQ ID NO: 200). […] All cytidine residues are 5-methylcytidines. […] If present, “N.D.” indicates “no data”.

% INHIB (inhibition of rat RANKL mRNA levels), at least 40%:
aggttctcagtggcacaggc (eA*eG*eG*eT*eT*d[5mC]*dT*d[5mC]*dA*dG*dT*dG*dG*d[5mC]*dA*e[5mC]*eA*eG*eG*e[5mC]; antisense) [ISIS 286651, 2′-MOE gapmer targeted to rat RANKL]
agtcgagtcctgcaaacctg (eA*eG*eT*e[5mC]*eG*dA*dG*dT*d[5mC]*d[5mC]*dT*dG*d[5mC]*dA*dA*eA*e[5mC]*e[5mC]*eT*eG; antisense) [ISIS 286603, 2′-MOE gapmer targeted to rat RANKL]
agttttccgttgcttaacgt (eA*eG*eT*eT*eT*dT*d[5mC]*d[5mC]*dG*dT*dT*dG*d[5mC]*dT*dT*eA*eA*e[5mC]*eG*eT; antisense) [ISIS 286617, 2′-MOE gapmer targeted to rat RANKL]
atcttggcccagcctcgatc (eA*eT*e[5mC]*eT*eT*dG*dG*d[5mC]*d[5mC]*d[5mC]*dA*dG*d[5mC]*d[5mC]*dT*e[5mC]*eG*eA*eT*e[5mC]; antisense) [ISIS 286614, 2′-MOE gapmer targeted to rat RANKL]
atcttggttaacccttagtt (eA*eT*e[5mC]*eT*eT*dG*dG*dT*dT*dA*dA*d[5mC]*d[5mC]*d[5mC]*dT*eT*eA*eG*eT*eT; antisense) [ISIS 286620, 2′-MOE gapmer targeted to rat RANKL]
caggaacagagcgatgctgc (e[5mC]*eA*eG*eG*eA*dA*d[5mC]*dA*dG*dA*dG*d[5mC]*dG*dA*dT*eG*e[5mC]*eT*eG*e[5mC]; antisense) [ISIS 286590, 2′-MOE gapmer targeted to rat RANKL]
ccattgtgtgatcaccatga (e[5mC]*e[5mC]*eA*eT*eT*dG*dT*dG*dT*dG*dA*dT*d[5mC]*dA*d[5mC]*e[5mC]*eA*eT*eG*eA; antisense) [ISIS 286648, 2′-MOE gapmer targeted to rat RANKL]
cccaaagtacgtcgcatctt (e[5mC]*e[5mC]*e[5mC]*eA*eA*dA*dG*dT*dA*d[5mC]*dG*dT*d[5mC]*dG*d[5mC]*eA*eT*e[5mC]*eT*eT; antisense) [ISIS 286639, 2′-MOE gapmer targeted to rat RANKL]
cgcgtgctgtcttctgatat (e[5mC]*eG*e[5mC]*eG*eT*dG*d[5mC]*dT*dG*dT*d[5mC]*dT*dT*d[5mC]*dT*eG*eA*eT*eA*eT; antisense) [ISIS 286599, 2′-MOE gapmer targeted to rat RANKL]
ctctgcaatgtaacggtacc (e[5mC]*eT*e[5mC]*eT*eG*d[5mC]*dA*dA*dT*dG*dT*dA*dA*d[5mC]*dG*eG*eT*eA*e[5mC]*e[5mC]; antisense) [ISIS 286652, 2′-MOE gapmer targeted to rat RANKL]
ctgcgctcgaaagtacagga (e[5mC]*eT*eG*e[5mC]*eG*d[5mC]*dT*d[5mC]*dG*dA*dA*dA*dG*dT*dA*e[5mC]*eA*eG*eG*eA; antisense) [ISIS 286593, 2′-MOE gapmer targeted to rat RANKL]
cttagtagtcttacacatgt (e[5mC]*eT*eT*eA*eG*dT*dA*dG*dT*d[5mC]*dT*dT*dA*d[5mC]*dA*e[5mC]*eA*eT*eG*eT; antisense) [ISIS 286645, 2′-MOE gapmer targeted to rat RANKL]
cttgggattttgatgctggt (e[5mC]*eT*eT*eG*eG*dG*dA*dT*dT*dT*dT*dG*dA*dT*dG*e[5mC]*eT*eG*eG*eT; antisense) [ISIS 286632, 2′-MOE gapmer targeted to rat RANKL]
ctttgaaagccccaaagtac (e[5mC]*eT*eT*eT*eG*dA*dA*dA*dG*d[5mC]*d[5mC]*d[5mC]*d[5mC]*dA*dA*eA*eG*eT*eA*e[5mC]; antisense) [ISIS 286641, 2′-MOE gapmer targeted to rat RANKL]
gacctgtacagggtcgagag (eG*eA*e[5mC]*e[5mC]*eT*dG*dT*dA*d[5mC]*dA*dG*dG*dG*dT*d[5mC]*eG*eA*eG*eA*eG; antisense) [ISIS 286647, 2′-MOE gapmer targeted to rat RANKL]
gatattctgttaggatccat (eG*eA*eT*eA*eT*dT*d[5mC]*dT*dG*dT*dT*dA*dG*dG*dA*eT*e[5mC]*e[5mC]*eA*eT; antisense) [ISIS 286597, 2′-MOE gapmer targeted to rat RANKL]
gcaaatgttggcgtacaggt (eG*e[5mC]*eA*eA*eA*dT*dG*dT*dT*dG*dG*d[5mC]*dG*dT*dA*e[5mC]*eA*eG*eG*eT; antisense) [ISIS 286627, 2′-MOE gapmer targeted to rat RANKL]
gcatatccatgctaaggctc (eG*e[5mC]*eA*eT*eA*dT*d[5mC]*d[5mC]*dA*dT*dG*d[5mC]*dT*dA*dA*eG*eG*e[5mC]*eT*e[5mC]; antisense) [ISIS 286643, 2′-MOE gapmer targeted to rat RANKL]
gcgatgctgcagaccacctg (antisense eG*e[5mC]*eG*eA*eT*dG*d[5mC]*dT*dG*d[5mC]*dA*dG*dA*d[5mC]*d[5mC]*eA*e[5mC]*e[5mC]*eT*eG) [ISIS 286588, 2′-MOE gapmer targeted to rat RANKL]
gcgcaggtacttgccgtagt (antisense eG*e[5mC]*eG*e[5mC]*eA*dG*dG*dT*dA*d[5mC]*dT*dT*dG*d[5mC]*d[5mC]*eG*eT*eA*eG*eT) [ISIS 286587, 2′-MOE gapmer targeted to rat RANKL]
gcgtacaggtaatagaagcc (eG*e[5mC]*eG*eT*eA*d[5mC]*dA*dG*dG*dT*dA*dA*dT*dA*dG*eA*eA*eG*e[5mC]*e[5mC]; antisense) [ISIS 286625, 2′-MOE gapmer targeted to rat RANKL]
ggtacttgccgtagtctcgg (antisense eG*eG*eT*eA*e[5mC]*dT*dT*dG*d[5mC]*d[5mC]*dG*dT*dA*dG*dT*e[5mC]*eT*e[5mC]*eG*eG) [ISIS 286586, 2′-MOE gapmer targeted to rat RANKL]
ggttaacccttagttttccg (eG*eG*eT*eT*eA*dA*d[5mC]*d[5mC]*d[5mC]*dT*dT*dA*dG*dT*dT*eT*eT*e[5mC]*e[5mC]*eG; antisense) [ISIS 286619, 2′-MOE gapmer targeted to rat RANKL]
gtcttacacatgtatctaca (eG*eT*e[5mC]*eT*eT*dA*d[5mC]*dA*d[5mC]*dA*dT*dG*dT*dA*dT*e[5mC]*eT*eA*e[5mC]*eA; antisense) [ISIS 286644, 2′-MOE gapmer targeted to rat RANKL]
gtggcacaggcccaggagtt (eG*eT*eG*eG*e[5mC]*dA*d[5mC]*dA*dG*dG*d[5mC]*d[5mC]*d[5mC]*dA*dG*eG*eA*eG*eT*eT; antisense) [ISIS 286650, 2′-MOE gapmer targeted to rat RANKL]
tagagatcttggcccagcct (eT*eA*eG*eA*eG*dA*dT*d[5mC]*dT*dT*dG*dG*d[5mC]*d[5mC]*d[5mC]*eA*eG*e[5mC]*e[5mC]*eT; antisense) [ISIS 286615, 2′-MOE gapmer targeted to rat RANKL]
taggatccatctgcgctcga (eT*eA*eG*eG*eA*dT*d[5mC]*d[5mC]*dA*dT*d[5mC]*dT*dG*d[5mC]*dG*e[5mC]*eT*e[5mC]*eG*eA; antisense) [ISIS 286595, 2′-MOE gapmer targeted to rat RANKL]
tcacggagtctcagaattct (eT*e[5mC]*eA*e[5mC]*eG*dG*dA*dG*dT*d[5mC]*dT*d[5mC]*dA*dG*dA*eA*eT*eT*e[5mC]*eT; antisense) [ISIS 286601, 2′-MOE gapmer targeted to rat RANKL]
tcagtctatgtcttgaactt (eT*e[5mC]*eA*eG*eT*d[5mC]*dT*dA*dT*dG*dT*d[5mC]*dT*dT*dG*eA*eA*e[5mC]*eT*eT; antisense) [ISIS 286642, 2′-MOE gapmer targeted to rat RANKL]
tccagagtcgagtcctgcaa (eT*e[5mC]*e[5mC]*eA*eG*dA*dG*dT*d[5mC]*dG*dA*dG*dT*d[5mC]*d[5mC]*eT*eG*e[5mC]*eA*eA; antisense) [ISIS 286604, 2′-MOE gapmer targeted to rat RANKL]
